# In patent US20230407243A1, “GENETIC PLATFORM TO INVESTIGATE THE FUNCTIONS OF BACTERIAL DRUG EFFLUX PUMPS” (priority 2022, published 2023):
# Read-outs that look alike come from different tables or passages of the source.
# Key:
# Format in all cases: cell-based, Escherichia coli
# EKO-35-Pore = test: MIC susceptibility profiling, porinated strain; conditions: for Fold changes of MICs: EKO-35-Pore compared to EKO-35-Pore (reference); for MIC: Escherichia coli
# How it was run: (§1)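 Strains carry the fhuA ΔC/Δ4L pore integrated between glmS and pstS under a constitutive promoter, with pore activity checked by vancomycin susceptibility. Overnight LB cultures were adjusted in PBS pH 7.4 to OD600 ~1.0 and diluted 1/2000 into MHB II. 2-fold compound titrations were read by OD600 after 18 h at 37 °C.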
# E. coli ΔtolC = test: microbe, parasite or virus in culture; conditions: for Minimum inhibitory concentration (MIC), ΔtolC: Table 10, without pore
# How it was run: (§2)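 Each compound was serially diluted twofold, in duplicate, and challenged with a 1/2000 dilution of PBS-washed cells (OD600 ~1.0) in MHB II. Plates were shaken at 37 °C for 18 h and OD600 was read at room temperature, with the baseline subtracted.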
# E. coli EKO-35 = test: microbe, parasite or virus in culture; conditions: for Fold change of MICs: EKO-35 compared to EKO-35 (reference); for MIC: Escherichia coli, EKO35
# How it was run: as §2
# [1] = test system: wild-type E. coli K-12 str. BW25113; test: microbe, parasite or virus in culture; conditions: technical duplicate; for MIC: Escherichia coli, BW25113
# How it was run: as §2
# ΔtolC-Pore = test: microbe, parasite or virus in culture; conditions: for Minimum inhibitory concentration (MIC), Pore ΔtolC: Table 10, with pore
# How it was run: as §1
# wild-type (WT) K-12-Pore = test: microbe, parasite or virus in culture; conditions: technical duplicate; for MIC: Escherichia coli
# How it was run: as §1
# EKO-35 araC::acrBD408A = test: MIC susceptibility profiling, efflux platform; conditions: for Fold change of MICs: EKO-35 araC::acrBD408A compared to EKO-35
# How it was run: as §2
# EKO-35 araC::mdtBC = test: MIC susceptibility profiling, efflux platform; conditions: for Fold change of MICs: EKO-35 araC::mdtBC compared to EKO-35
# How it was run: as §2
# EKO-35 araC::acrEF = test: MIC susceptibility profiling, efflux platform; conditions: for Fold change of MICs: EKO-35 araC::acrEF compared to EKO-35
# How it was run: as §2
# EKO-35 araC::macAB Pore = test: MIC susceptibility profiling, porinated efflux platform; conditions: for Fold changes of MICs: EKO-35 araC::macAB Pore compared to EKO-35-Pore
# How it was run: as §1
# EKO-35 araC::acrB Pore = test: as above; conditions: for Fold changes of MICs: EKO-35 araC::acr-B Pore compared to EKO-35-Pore
# How it was run: as §1
# EKO-35 araC::mdtBC Pore = test: as above; conditions: for Fold changes of MICs: EKO-35 araC::mdtBC Pore compared to EKO-35-Pore
# How it was run: as §1
# EKO-35 araC::emrKY Pore = test: as above; conditions: for Fold changes of MICs: EKO-35 araC::emrKY Pore compared to EKO-35-Pore
# How it was run: as §1
# EKO-35 araC::acrD Pore = test: as above; conditions: for Fold changes of MICs: EKO-35 araC::acrD Pore compared to EKO-35-Pore
# How it was run: as §1
# EKO-35 araC::acrEF Pore = test: as above; conditions: for Fold changes of MICs: EKO-35 araC::acrEF Pore compared to EKO-35-Pore
# How it was run: as §1
# EKO-35 araC::mexCD Pore = test: as above; conditions: for Fold changes of MICs: EKO-35 araC::mexCD Pore compared to EKO-35-Pore
# How it was run: as §1
# EKO-35 araC::emrAB Pore = test: as above; conditions: for Fold changes of MICs: EKO-35 araC::emrAB Pore compared to EKO-35-Pore
# How it was run: as §1
# EKO-35 araC::mdtEF Pore = test: as above; conditions: for Fold changes of MICs: EKO-35 araC::mdtEF Pore compared to EKO-35-Pore
# How it was run: as §1
# [2] = test system: EKO-35 araC::acrBD408A Pore; test: as above; conditions: for Fold changes of MICs: EKO-35 araC::acrBD408A Pore compared to EKO-35-Pore
# How it was run: as §1
# [3] = Table 14A, porinated, technical duplicate
# [4] = Table 13A, non-porinated, technical duplicate
# [5] = Table 13B, non-porinated, technical duplicate
compound,measurement,setting,value
"CCCCCCCCCCCCOS(=O)(=O)[O-].[Na+] [SDS, sodium dodecyl sulphate]",Fold changes of MICs,EKO-35-Pore,1 fold
same,MIC,"EKO-35-Pore; Table 10, with pore, technical duplicate, read-out: Minimum inhibitory concentration (MIC), Pore EKO-35",31.2 µg/mL
same,MIC,"EKO-35-Pore; Table 14A, porinated, technical duplicate, read-out: Minimum inhibitory concentration, EKO-35-Pore",31.2 µg/mL
same,MIC,"E. coli ΔtolC; Escherichia coli, 18 h, read-out: Minimum Inhibitory Concentration, ΔtolC",15.6 µg/mL
same,"Minimum inhibitory concentration (MIC), ΔtolC",E. coli ΔtolC; technical duplicate,15.625 µg/mL
same,Fold change of MICs,E. coli EKO-35,1 fold
same,MIC,"E. coli EKO-35; Table 10, without pore, technical duplicate, read-out: Minimum inhibitory concentration (MIC), EKO-35",31.2 µg/mL
same,MIC,"E. coli EKO-35; Table 13A, non-porinated, technical duplicate, read-out: Minimum Inhibitory Concentration, EKO-35",31.2 µg/mL
same,MIC,"[1]; Table 10, without pore, read-out: Minimum inhibitory concentration (MIC), K-12",1000 µg/mL
same,MIC,"[1]; Table 13A, non-porinated, read-out: Minimum Inhibitory Concentration, K-12",1000 µg/mL
same,MIC,"ΔtolC-Pore; Escherichia coli, 18 h, read-out: Minimum inhibitory concentration, ΔtolC-Pore",15.6 µg/mL
same,"Minimum inhibitory concentration (MIC), Pore ΔtolC",ΔtolC-Pore; technical duplicate,15.625 µg/mL
same,MIC,"wild-type (WT) K-12-Pore; Table 10, with pore, read-out: Minimum inhibitory concentration (MIC), Pore K-12",1000 µg/mL
same,MIC,"wild-type (WT) K-12-Pore; Table 14A, porinated, read-out: Minimum inhibitory concentration, K-12 (WT)-Pore",1000 µg/mL
same,Fold change of MICs,EKO-35 araC::acrBD408A,2 fold
same,MIC,"EKO-35 araC::acrBD408A; Escherichia coli, Table 13B, non-porinated, technical duplicate, read-out: Minimum Inhibitory Concentration, EKO-35 araC::acrBD408A",62.5 µg/mL
same,Fold change of MICs,EKO-35 araC::mdtBC,2 fold
same,MIC,"EKO-35 araC::mdtBC; Escherichia coli, Table 13B, non-porinated, technical duplicate, read-out: Minimum Inhibitory Concentration, EKO-35 araC::mdtBC",62.5 µg/mL
same,Fold change of MICs,EKO-35 araC::acrEF,32 fold
same,Fold changes of MICs,EKO-35 araC::macAB Pore,1 fold
same,MIC,"EKO-35 araC::macAB Pore; Escherichia coli, EKO-35 araC::macAB Pore, technical duplicate, read-out: Minimum inhibitory concentration",31.2 µg/mL
same,Fold changes of MICs,EKO-35 araC::acrB Pore,32 fold
same,Fold changes of MICs,EKO-35 araC::mdtBC Pore,1 fold
same,MIC,"EKO-35 araC::mdtBC Pore; Escherichia coli, EKO-35 araC::mdtBC Pore, technical duplicate, read-out: Minimum inhibitory concentration",31.2 µg/mL
same,Fold changes of MICs,EKO-35 araC::emrKY Pore,1 fold
same,MIC,"EKO-35 araC::emrKY Pore; Escherichia coli, EKO-35 araC::emrKY Pore, technical duplicate, read-out: Minimum inhibitory concentration",31.2 µg/mL
same,Fold changes of MICs,EKO-35 araC::acrD Pore,32 fold
same,Fold changes of MICs,EKO-35 araC::acrEF Pore,32 fold
same,Fold changes of MICs,EKO-35 araC::mexCD Pore,4 fold
same,MIC,"EKO-35 araC::mexCD Pore; Escherichia coli, EKO-35 araC::mexCD Pore, technical duplicate, read-out: Minimum inhibitory concentration",125 µg/mL
same,Fold changes of MICs,EKO-35 araC::emrAB Pore,4 fold
same,MIC,"EKO-35 araC::emrAB Pore; Escherichia coli, EKO-35 araC::emrAB Pore, technical duplicate, read-out: Minimum inhibitory concentration",125 µg/mL
same,Fold changes of MICs,EKO-35 araC::mdtEF Pore,32 fold
same,Fold changes of MICs,[2],1 fold
same,MIC,"[2]; Escherichia coli, EKO-35 araC::acrBD408A Pore, technical duplicate, read-out: Minimum inhibitory concentration",31.2 µg/mL
N#CC(C#N)=NNc1ccc(-n2ccc(C(F)(F)F)n2)cc1 [compound 8],Fold changes of MICs,EKO-35-Pore,1 fold
same,"Minimum inhibitory concentration (MIC), Pore EKO-35","EKO-35-Pore; Table 10, with pore, technical duplicate",80 µg/mL
same,"Minimum inhibitory concentration, EKO-35-Pore",EKO-35-Pore; [3],80 µg/mL
same,"Minimum inhibitory concentration (MIC), ΔtolC",E. coli ΔtolC; technical duplicate,1.25 µg/mL
same,"Minimum Inhibitory Concentration, ΔtolC",E. coli ΔtolC; [4],1.25 µg/mL
same,Fold change of MICs,E. coli EKO-35,1 fold
same,"Minimum inhibitory concentration (MIC), EKO-35","E. coli EKO-35; Table 10, without pore, technical duplicate",320 µg/mL
same,"Minimum Inhibitory Concentration, EKO-35",E. coli EKO-35; [4],320 µg/mL
same,"Minimum inhibitory concentration (MIC), K-12","[1]; Table 10, without pore",640 µg/mL
same,"Minimum Inhibitory Concentration, K-12","[1]; Table 13A, non-porinated",640 µg/mL
same,"Minimum inhibitory concentration (MIC), Pore ΔtolC",ΔtolC-Pore; technical duplicate,1.25 µg/mL
same,"Minimum inhibitory concentration, ΔtolC-Pore",ΔtolC-Pore; [3],1.25 µg/mL
same,"Minimum inhibitory concentration (MIC), Pore K-12","wild-type (WT) K-12-Pore; Table 10, with pore",160 µg/mL
same,"Minimum inhibitory concentration, K-12 (WT)-Pore","wild-type (WT) K-12-Pore; Table 14A, porinated",160 µg/mL
same,Fold change of MICs,EKO-35 araC::acrBD408A,1 fold
same,"Minimum Inhibitory Concentration, EKO-35 araC::acrBD408A",EKO-35 araC::acrBD408A; [5],320 µg/mL
same,Fold change of MICs,EKO-35 araC::mdtBC,1 fold
same,"Minimum Inhibitory Concentration, EKO-35 araC::mdtBC",EKO-35 araC::mdtBC; [5],320 µg/mL
same,Fold change of MICs,EKO-35 araC::acrEF,1 fold
same,"Minimum Inhibitory Concentration, EKO-35 araC::acrEF",EKO-35 araC::acrEF; [4],320 µg/mL
same,Fold changes of MICs,EKO-35 araC::macAB Pore,1 fold
same,Minimum inhibitory concentration,"EKO-35 araC::macAB Pore; EKO-35 araC::macAB Pore, technical duplicate",80 µg/mL
same,Fold changes of MICs,EKO-35 araC::acrB Pore,2 fold
same,"Minimum inhibitory concentration, EKO-35 araC::acrB Pore",EKO-35 araC::acrB Pore; [3],160 µg/mL
same,Fold changes of MICs,EKO-35 araC::mdtBC Pore,1 fold
same,Minimum inhibitory concentration,"EKO-35 araC::mdtBC Pore; EKO-35 araC::mdtBC Pore, technical duplicate",80 µg/mL
same,Fold changes of MICs,EKO-35 araC::emrKY Pore,1 fold
same,Minimum inhibitory concentration,"EKO-35 araC::emrKY Pore; EKO-35 araC::emrKY Pore, technical duplicate",80 µg/mL
same,Fold changes of MICs,EKO-35 araC::acrD Pore,1 fold
same,"Minimum inhibitory concentration, EKO-35 araC::acrD Pore",EKO-35 araC::acrD Pore; [3],40 µg/mL
same,Fold changes of MICs,EKO-35 araC::acrEF Pore,1 fold
same,"Minimum inhibitory concentration, EKO-35 araC::acrEF Pore",EKO-35 araC::acrEF Pore; [3],40 µg/mL
same,Fold changes of MICs,EKO-35 araC::mexCD Pore,1 fold
same,Minimum inhibitory concentration,"EKO-35 araC::mexCD Pore; EKO-35 araC::mexCD Pore, technical duplicate",80 µg/mL
same,Fold changes of MICs,EKO-35 araC::emrAB Pore,1 fold
same,Minimum inhibitory concentration,"EKO-35 araC::emrAB Pore; EKO-35 araC::emrAB Pore, technical duplicate",40 µg/mL
same,Fold changes of MICs,EKO-35 araC::mdtEF Pore,1 fold
same,"Minimum inhibitory concentration, EKO-35 araC::mdtEF Pore",EKO-35 araC::mdtEF Pore; [3],80 µg/mL
same,Fold changes of MICs,[2],1 fold
same,Minimum inhibitory concentration,"[2]; EKO-35 araC::acrBD408A Pore, technical duplicate",80 µg/mL
